Data published in paper PMC9224473 (International Journal of Molecular Sciences, 2022).
≈ marks a conversion by molar mass, not a printed value.

Legend:
S. aureus T 5591 = assay: MIC, broth microdilution, clinical strain; type: cell-based, Staphylococcus aureus; conditions: Staphylococcus aureus, T5591, 19 h, 35 °C
S. aureus ATCC 25923 = assay: MIC, broth microdilution, standard strain; type: cell-based, Staphylococcus aureus; conditions: Staphylococcus aureus, ATCC25923, 19 h, 35 °C
E. coli 600 = assay: MIC, broth microdilution, clinical strain; type: cell-based, Escherichia coli; conditions: Escherichia coli, 600, 19 h, 35 °C
P. aeruginosa ATCC 15442 = assay: MIC, broth microdilution, standard strain; type: cell-based, Pseudomonas aeruginosa; conditions: Pseudomonas aeruginosa, ATCC15442, 19 h, 35 °C
[1] = tested on: HCT116 (human colon cancer); assay: MTT cytotoxicity assay; type: cell-based; conditions: Homo sapiens, HCT-116, 72 h, mean SD
Protocol: (§1) The human cell lines SW480 (primary colon cancer), SW620 (lymph node metastatic colon cancer from the same patient as primary cancer cells), HCT116 (colon carcinoma), HepG2 (liver cancer), and HaCaT (immortalized keratinocytes) were obtained from the American Type Culture Collection (ATCC, Rockville, MD, USA). The SW480, SW620 and HCT116 cells were grown in MEM (ThermoSci, Waltham, MA, USA), HepG2 and HaCaT in DMEM High Glucose (Biowest SAS, Nuaillé, France) supplemented with 10% foetal bovine serum (FBS), HEPES (20 mM), and antibiotics (100 U mL^−1 of Penicillin and 100 μg mL^−1 of Streptomycin). The cells were incubated in a humidified incubator at 37 °C/5% CO2, until 80–90% confluence was reached.
(§2) The cell viability was assessed by using of MTT salt [3-(4,5-dimethylthiazol-2-yl)-2,5-diphenyltetrazolium bromide] converted by mitochondrial dehydrogenase, occurring in living cells. The cells were seeded in 96-well plates at a density of 1 × 10^4 cells per well and allowed to adhere for 24 h at 37 °C in a CO2 humidified incubator. […]. The untreated cells were used as the control.
(§3) After 72 h incubation, the medium was replaced with 200 µL per well of free-serum medium containing 0.5 mg mL^−1 MTT and incubated for 4 h at 37 °C in a CO2 humidified incubator. Subsequently, the medium was removed and dimethyl sulfoxide (DMSO) with isopropanol (1:1) was added to dissolve the formazan crystals. The optical density was measured using UVM 340 reader (ASYS Hitech GmbH, Eugendorf, Austria) at a wavelength of 570 nm. The experiments were repeated three times. The cell viability was calculated as the percent of MTT reduced in treated cells versus control cells (untreated cells). The number of viable cells cultured without tested compounds was assumed as 100%. A decreased relative MTT level indicates decreased cell viability. The IC50 values were estimated using CompuSyn version 1.0.

[2] = tested on: SW480 (human primary colon cancer); assay: MTT cytotoxicity assay; type: cell-based; conditions: Homo sapiens, SW480, 72 h, mean SD
Protocol: as §1, §2, §3

[3] = tested on: HepG2 (human liver cancer); assay: MTT cytotoxicity assay; type: cell-based; conditions: Homo sapiens, HepG2, 72 h, mean SD
Protocol: as §1, §2, §3

[4] = tested on: HaCaT (human immortal keratinocyte cell line); assay: MTT cytotoxicity assay; type: cell-based; conditions: Homo sapiens, HaCaT, 72 h, mean SD, read-out: IC50 HaCaT (normal cells)
Protocol: as §1, §2, §3

S. aureus NCTC 4163 = assay: MIC, broth microdilution, standard strain; type: cell-based, Staphylococcus aureus; conditions: Staphylococcus aureus, NCTC4163, 19 h, 35 °C
[5] = tested on: SW620 (human metastatic colon cancer); assay: MTT cytotoxicity assay; type: cell-based; conditions: Homo sapiens, SW-620, 72 h, mean SD
Protocol: as §1
The cell viability was assessed by using of MTT salt [3-(4,5-dimethylthiazol-2-yl)-2,5-diphenyltetrazolium bromide] converted by mitochondrial dehydrogenase, occurring in living cells. […] The untreated cells were used as the control.
as §3, with “Subsequently,” for “After 72 h incubation, the medium was replaced with 200 µL per well of free-serum medium containing 0.5 mg mL^−1 MTT and incubated for 4 h at 37 °C in a CO2 humidified incubator. Subsequently,”

P. aeruginosa 659 = assay: MIC, broth microdilution, clinical strain; type: cell-based, Pseudomonas aeruginosa; conditions: Pseudomonas aeruginosa, 659, read-out: MIC P. aeruginosa 659, 19 h, 35 °C
S. epidermidis KR 4243 = assay: MIC, broth microdilution, clinical strain; type: cell-based, Staphylococcus epidermidis; conditions: Staphylococcus epidermidis, KR4243, 19 h, 35 °C
E. coli ATCC 25922 = assay: MIC, broth microdilution, standard strain; type: cell-based, Escherichia coli; conditions: 35 °C; for MIC: Escherichia coli, ATCC25922, 19 h
[6] = tested on: S. epidermidis ATCC 12228; assay: MIC, broth microdilution, standard strain; type: cell-based, Staphylococcus epidermidis; conditions: Staphylococcus epidermidis, ATCC12228, 19 h, 35 °C
S. aureus ATCC 6538 = assay: MIC, broth microdilution, standard strain; type: cell-based, Staphylococcus aureus; conditions: Staphylococcus aureus, ATCC6538, 19 h, 35 °C
[7] = tested on: S. epidermidis ATCC 35984; assay: MIC, broth microdilution, standard strain; type: cell-based, Staphylococcus epidermidis; conditions: Staphylococcus epidermidis, ATCC35984, 19 h, 35 °C
E. coli 520 = assay: MIC, broth microdilution, clinical strain; type: cell-based, Escherichia coli; conditions: Escherichia coli, 520, 19 h, 35 °C
S. aureus ATCC 29213 = assay: MIC, broth microdilution, standard strain; type: cell-based, Staphylococcus aureus; conditions: Staphylococcus aureus, ATCC29213, 19 h, 35 °C
S. aureus T 5595 = assay: MIC, broth microdilution, clinical strain; type: cell-based, Staphylococcus aureus; conditions: Staphylococcus aureus, T5595, 19 h, 35 °C
E. coli 510 = assay: MIC, broth microdilution, clinical strain; type: cell-based, Escherichia coli; conditions: Escherichia coli, 510, 19 h, 35 °C
S. pasteuri KR 4358 = assay: MIC, broth microdilution, clinical strain; type: cell-based, Staphylococcus pasteuri; conditions: Staphylococcus pasteuri, KR4358, 19 h, 35 °C
[8] = tested on: standard bacteria strains; assay: Antimicrobial screening (MIC), standard bacteria strains; type: cell-based; conditions: MIC evaluation
Protocol: Obtained compounds were examined for antimicrobial potency. Firstly, all of them were screened for their minimal inhibitory concentrations (MICs). A suitable set of bacteria was used, including representative standard Gram-positive and Gram-negative rods (Table 2 and Table 3). For clarity, results are presented for menthol and thymol derivatives separately.
The antimicrobial assays were conducted using reference strains of bacteria derived from international microbe collections: American Type Culture Collection (ATCC) and National Collection of Type Culture (NCTC). The following standard strains of bacteria were used: Gram-positive—Staphylococcus aureus NCTC 4163, Staphylococcus aureus ATCC 25923, Staphylococcus aureus ATCC 6538, Staphylococcus aureus ATCC 29213, Staphylococcus epidermidis ATCC 12228, Staphylococcus epidermidis ATCC 35984, Gram-negative: Escherichia coli ATCC 25922, Pseudomonas aeruginosa ATCC 15442. […] Antimicrobial activity was examined by the Minimal Inhibitory Concentration (MIC) method under standard procedures provided by CLSI with some modifications. MIC was determined by the two-fold serial broth microdilution method in 96-well microtitration plates using Mueller–Hinton II broth medium (Becton Dickinson, Franklin Lakes, NJ, USA). The final inoculum of all studied bacteria was 10^6 CFU/mL (colony forming unit per millilitre). The stock solution of tested compounds was prepared in dimethyl sulfoxide (DMSO) and diluted to a maximum of 1% of solvent content with a sterile medium.

[9] = tested on: standard Gram-positive Staphylococci; assay: MIC, panel of standard Gram-positive strains; type: cell-based, Staphylococcus; conditions: range over all standard Gram-positive Staphylococci

Row | Structure (SMILES) | MIC (S. aureus T 5591) | MIC (S. aureus ATCC 25923) | MIC (E. coli 600) | MIC (P. aeruginosa ATCC 15442) | IC50 [1] | IC50 [2] | IC50 [3] | IC50 [4] | MIC (S. aureus NCTC 4163) | IC50 [5] | MIC (P. aeruginosa 659) | MIC (S. epidermidis KR 4243) | MIC (E. coli ATCC 25922) | MIC [6] | MIC (S. aureus ATCC 6538) | MIC [7] | MIC (E. coli 520) | MIC (S. aureus ATCC 29213) | MIC (S. aureus T 5595) | MIC (E. coli 510) | further results
1 | CC(C)[C@@H]1CC[C@@H](C)C[C@H]1OC(=O)CCCCCN1CCN(c2cc3c(cc2F)c(=O)c(C(=O)O)cn3C2CC2)CC1 [Compound 6, 1-cyclopropyl-6-fluoro-7-{4-[6-((1R,2S,5R)-2-isopropyl-5-methylcyclohexyloxy)-6-oxohexyl]piperazin-1-yl}-4-oxo-1,4-dihydroquinoline-3-carboxylic acid] | 8 µg/mL (≈ 13.7 µM) | 8 µg/mL (≈ 13.7 µM) | 64 µg/mL (≈ 110 µM) | 256 µg/mL (≈ 439 µM) | 29.5 ± 2.1 µM | 46.2 ± 1.8 µM | 53.7 ± 0.9 µM | > 100 µM | 4 µg/mL (≈ 6.85 µM) | 38.1 ± 2.5 µM | > 256 µg/mL | 8 µg/mL (≈ 13.7 µM) | 32 µg/mL (≈ 54.8 µM) | 8 µg/mL (≈ 13.7 µM) | 4 µg/mL (≈ 6.85 µM) | 8 µg/mL (≈ 13.7 µM) | 64 µg/mL (≈ 110 µM) | 8 µg/mL (≈ 13.7 µM) | 8 µg/mL (≈ 13.7 µM) | > 256 µg/mL | melting point: 210.8 to 212.4 °C; MIC (S. pasteuri KR 4358): 8 µg/mL (≈ 13.7 µM)
2 | CC(C)[C@@H]1CC[C@@H](C)C[C@H]1OC(=O)CCCCCOC(=O)c1cn(C2CC2)c2cc(N3CCN(CCCCCC(=O)O[C@@H]4C[C@H](C)CC[C@H]4C(C)C)CC3)c(F)cc2c1=O [Compound 8, 6-((1R,2S,5R)-2-isopropyl-5-methylcyclohexyloxy)-6-oxohexyl-1-cyclopropyl-6-fluoro-7-{4-[6-((1R,2S,5R)-2-isopropyl-5-methylcyclohexyloxy)-6-oxohexyl]piperazin-1-yl}-4-oxo-1,4-dihydroquinoline-3-carboxylate] |  | > 256 µg/mL |  | > 256 µg/mL | 31.6 ± 7.4 µM | 78.2 ± 5.8 µM | 30.2 ± 1.9 µM | 33.4 ± 3.8 µM | > 256 µg/mL | 48.7 ± 2.8 µM |  |  | > 256 µg/mL | > 256 µg/mL | > 256 µg/mL | > 256 µg/mL |  | > 256 µg/mL |  |  | Antimicrobial activity (in words) [8]: rather inactive
3 | Cc1ccc(C(C)C)c(OC(=O)CCCN2CCN(c3cc4c(cc3F)c(=O)c(C(=O)O)cn4C3CC3)CC2)c1 [Compound 12, 1-cyclopropyl-6-fluoro-7-{4-[4-(2-isopropyl-5-methylphenoxy)-4-oxobutyl]piperazin-1-yl}-4-oxo-1,4-dihydroquinoline-3-carboxylic acid] | 1 µg/mL (≈ 1.82 µM) | 0.8 µg/mL (≈ 1.46 µM) | 4 µg/mL (≈ 7.28 µM) | 12.8 µg/mL (≈ 23.3 µM) | 28.6 ± 0.1 µM | 33.7 ± 3.5 µM | 43.4 ± 3.1 µM | 59.1 ± 3.1 µM | 1.6 µg/mL (≈ 2.91 µM) | 61.8 ± 0.1 µM | 64 µg/mL (≈ 116 µM) | 2 µg/mL (≈ 3.64 µM) | 2 to 4 µg/mL (≈ 3.64 to 7.28 µM) | 0.8 µg/mL (≈ 1.46 µM) | 1.6 µg/mL (≈ 2.91 µM) | 0.8 µg/mL (≈ 1.46 µM) | 8 µg/mL (≈ 14.6 µM) | 0.8 µg/mL (≈ 1.46 µM) | 4 µg/mL (≈ 7.28 µM) | 128 µg/mL (≈ 233 µM) | MIC range against standard Gram-positive strains [9]: 0.8 to 1.6 µg/mL; MIC E. coli ATCC 25922 (E. coli ATCC 25922; 19 h): 3.2 µg/mL (≈ 5.82 µM); MIC (S. pasteuri KR 4358): 1 µg/mL (≈ 1.82 µM)
4 | CC(C)[C@@H]1CC[C@@H](C)C[C@H]1OC(=O)CCCCOC(=O)c1cn(C2CC2)c2cc(N3CCN(CCCCC(=O)O[C@@H]4C[C@H](C)CC[C@H]4C(C)C)CC3)c(F)cc2c1=O [Compound 7, 5-((1R,2S,5R)-2-isopropyl-5-methylcyclohexyloxy)-5-oxopentyl-1-cyclopropyl-6-fluoro-7-{4-[5-((1R,2S,5R)-2-isopropyl-5-methylcyclohexyloxy)-5-oxopentyl]piperazin-1-yl}-4-oxo-1,4-dihydroquinoline-3-carboxylate] |  | > 256 µg/mL |  | > 256 µg/mL | 49.3 ± 6.5 µM | 45.5 ± 5.5 µM | 32.8 ± 3.1 µM | 25.6 ± 1.2 µM | > 256 µg/mL | 54.1 ± 0.5 µM |  |  | > 256 µg/mL | > 256 µg/mL | > 256 µg/mL | > 256 µg/mL |  | > 256 µg/mL |  |  | Antimicrobial activity (in words) [8]: rather inactive
